Measurements as given in patent US11912682B2, “Isoindolinone compounds” (Monte Rosa Therapeutics, Inc., priority 2021, dated 2024).
Like-named read-outs stand apart in the source and are kept apart here.

Assays:
[1] = biological target: Full length wild-type cereblon CRBN (Homo sapiens (Human), UniProt Q96SW2); assay: fluorescence polarization (FP) assay, cereblon binding
Method in brief: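 Full-length wild-type CRBN (80.0 nM as dispensed) preincubated 30 min at room temperature with compound in HEPES pH 8.0, NaCl, TCEP, 0.05% Tween 20.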

IKZF1 (Ikaros) = IKZF1 (Ikaros) (Homo sapiens (Human), UniProt Q13422); assay: selectivity by Western blot in MM1S cells, IKZF1; assay type: cell-based; parameters: key to IKZF1 degradation: A represents a no degradation observed at 30 μM; B represents trace degradation at 30 μM (below 20%); C represents weak degradation at 30 μM (below 50%); D represents degradation at 30 μM (>90%); E represents degradation at 3 μM (>90%); F represents degradation at 0.3 μM (>90%); conditions: for IKZF1 degradation: MM1S cells, 6 hours, 0.3, 3 and 30 μM
Chain of IKZF1 (Ikaros) (Q13422 whole entry, looked up): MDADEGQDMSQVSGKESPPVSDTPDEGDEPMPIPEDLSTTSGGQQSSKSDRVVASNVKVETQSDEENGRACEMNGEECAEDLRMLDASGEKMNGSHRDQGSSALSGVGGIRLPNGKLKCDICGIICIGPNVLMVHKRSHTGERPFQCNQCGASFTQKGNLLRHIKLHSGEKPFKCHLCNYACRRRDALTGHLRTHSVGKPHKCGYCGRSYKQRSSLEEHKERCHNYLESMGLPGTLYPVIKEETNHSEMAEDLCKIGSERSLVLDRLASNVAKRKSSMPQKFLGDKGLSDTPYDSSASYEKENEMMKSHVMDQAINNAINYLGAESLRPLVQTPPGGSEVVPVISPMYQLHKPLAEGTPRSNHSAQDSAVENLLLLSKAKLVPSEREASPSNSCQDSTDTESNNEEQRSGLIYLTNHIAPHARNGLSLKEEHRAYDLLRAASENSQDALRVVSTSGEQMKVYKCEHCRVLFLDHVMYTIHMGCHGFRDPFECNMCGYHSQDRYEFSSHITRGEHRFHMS
Description: (§1) MM1S cells were purchased from ATCC (cat. Number CRL-2974), sub-cultured in 90% RPMI 1640 with 10% FBS, supplemented with 1× P/S and incubated at 37° C., 5% CO2. Compounds were stored as 10 mM DMSO stock. For the assay, MM1S cells (3 million cells/well) were plated in 6-well plates and incubated over night. Cells were treated with respective compounds using a serial dilution: 0.3 μM, 3 μM and 30 μM as well as a vehicle only (DMSO) control for 6 hours. Media with suspension cells was subsequently transferred to 15 mL conical tubes, wells rinsed twice with ice-cold PBS and merged with cell suspension in respective 15 mL conical tube. Cells were spinned down, supernatant aspirated, pellets resuspended in ice-cold PBS and transferred to microtubes. Cells were spinned down, supernatant aspirated and pellets resuspended in 120 μL RIPA lysis buffer supplemented with protease and phosphatase inhibitors. Cell lysates were incubated on ice for 20 minutes followed by centrifugation at >20,000 xg for 5 min. Supernatants were transferred to fresh microtubes and stored at −80° C. Total protein concentration was determined using a BCA assay with a BSA standard curve and concentration of all samples was adjusted to 1 mg/mL. 25 μL 4× LDS sample buffer supplemented with 100 mM DTT was added to 75 μL sample. Samples were centrifuged (8,000 xg, 1 min) and incubated at 95° C. for 5 min followed by another centrifugation step (8,000 xg, 1 min). 20 μL of each sample was loaded on a 4-12% gel alongside a protein molecular weight marker. Gels were run in the presence of MOPS buffer at 80 Volts for 30 min, followed by 120 Volts for 1.5 h and proteins subsequently transferred onto nitrocellulose membranes at 20 Volts for 7 min using an iBlot2 Gel Transfer Device. Membranes were then cut horizontally into two pieces, covering 80-50 kDa and 50-25 kDa. Blocking the membranes was performed by gently shaking in 5% (w/v) skim milk in TSB-T for 1 hr at room temperature. All primary antibodies were used at a 1/1000 in 5% (w/v) BSA dissolved in TBST and incubated with membranes over night at 4° C. Anti-IKZF1 (Ikaros; D6N9Y; 14859S), anti-IKZF3 (Aiolos; D1C1E; 15103S) antibodies were purchased from Cell Signalling Technology, anti-ZFP91 antibody from Bethyl laboratories, anti-GSPT1 from Sigma Aldrich (HPA052488) and anti CK1alpha from AbCam (ab206652). After three washes with 1× TBST for 5 min, HRP-coupled secondary antibodies diluted in 5% (w/v) BSA/TBST (Goat Anti-Rb IgG, dil. 1/10,000; Goat Anti-Mouse IgG, dil. 1/5000) were added for 1 hr at room temperature. After three washes with 1× TBST (5 minutes each), membranes were incubated with ECL reagent for 1 min at room temperature. Chemiluminescence signals were then detected using a LAS-4000 system with default settings and signals quantified using Image Studio Lite software (version 5.2). Membrane parts previously incubated with antibody against CK1alpha were stripped off antibodies by incubating with stripping buffer for 30 minutes followed by three washed with TBST (5 min each), blocking with 5% (w/v) skim milk for 1 hr, and incubation with primary antibody against GAPDH overnight at 4° C. Subsequent washes, incubation with secondary antibody and signal acquisition were performed as described above.

CK1alpha = CK1alpha (Homo sapiens (Human), UniProt P48729); assay: selectivity by Western blot in MM1S cells, CK1alpha; assay type: cell-based; parameters: key to CK1alpha degradation: A represents a no degradation observed at 30 μM; B represents trace degradation at 30 μM (below 20%); C represents weak degradation at 30 μM (below 50%); D represents degradation at 30 μM (>90%); E represents degradation at 3 μM (>90%); F represents degradation at 0.3 μM (>90%); conditions: for CK1alpha degradation: MM1S cells, 6 hours, 0.3, 3 and 30 μM
Chain of CK1alpha (P48729 whole entry, looked up): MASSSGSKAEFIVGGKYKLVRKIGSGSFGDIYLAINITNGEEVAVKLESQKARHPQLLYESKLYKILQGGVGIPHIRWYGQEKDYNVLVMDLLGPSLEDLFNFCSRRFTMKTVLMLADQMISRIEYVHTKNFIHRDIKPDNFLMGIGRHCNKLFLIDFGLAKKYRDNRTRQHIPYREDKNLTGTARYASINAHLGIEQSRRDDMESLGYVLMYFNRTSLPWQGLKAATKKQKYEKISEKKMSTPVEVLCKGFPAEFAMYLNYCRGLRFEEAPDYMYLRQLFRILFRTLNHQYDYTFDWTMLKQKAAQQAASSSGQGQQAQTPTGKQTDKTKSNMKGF
Description: as §1

GSPT1 = GSPT1 (Homo sapiens (Human), UniProt P15170+Q96SW2); assay: selectivity by Western blot in MM1S cells, GSPT1; assay type: cell-based; conditions: for GSPT1 degradation: MM1S cells, 6 hours, 0.3, 3 and 30 μM
Chain of GSPT1 (P15170 whole entry, looked up): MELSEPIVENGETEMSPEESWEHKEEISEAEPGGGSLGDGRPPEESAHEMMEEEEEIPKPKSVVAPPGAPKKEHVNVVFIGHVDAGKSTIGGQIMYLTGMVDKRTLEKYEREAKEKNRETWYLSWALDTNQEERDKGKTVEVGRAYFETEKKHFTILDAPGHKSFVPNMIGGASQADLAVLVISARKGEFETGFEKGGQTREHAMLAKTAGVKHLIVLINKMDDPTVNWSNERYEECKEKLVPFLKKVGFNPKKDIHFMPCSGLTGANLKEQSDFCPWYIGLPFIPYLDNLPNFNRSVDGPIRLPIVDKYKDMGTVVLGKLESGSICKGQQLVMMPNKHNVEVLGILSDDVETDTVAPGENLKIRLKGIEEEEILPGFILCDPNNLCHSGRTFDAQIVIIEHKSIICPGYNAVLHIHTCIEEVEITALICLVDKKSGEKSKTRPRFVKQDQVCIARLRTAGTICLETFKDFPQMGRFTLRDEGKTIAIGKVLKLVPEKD
Chain of GSPT1 (Q96SW2 whole entry, looked up): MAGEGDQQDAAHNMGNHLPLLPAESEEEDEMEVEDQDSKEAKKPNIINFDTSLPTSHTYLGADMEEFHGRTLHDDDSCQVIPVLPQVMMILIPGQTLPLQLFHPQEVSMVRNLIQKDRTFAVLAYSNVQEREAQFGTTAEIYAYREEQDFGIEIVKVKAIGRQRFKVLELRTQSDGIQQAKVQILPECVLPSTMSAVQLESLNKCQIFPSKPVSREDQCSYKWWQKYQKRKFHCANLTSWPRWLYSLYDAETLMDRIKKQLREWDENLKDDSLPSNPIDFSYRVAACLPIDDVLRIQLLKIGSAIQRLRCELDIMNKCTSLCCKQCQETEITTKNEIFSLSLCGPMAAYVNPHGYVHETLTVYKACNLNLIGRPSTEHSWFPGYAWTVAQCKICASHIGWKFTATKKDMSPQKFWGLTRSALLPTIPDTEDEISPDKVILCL
Chain of GSPT1 (Q16531 whole entry partner, looked up): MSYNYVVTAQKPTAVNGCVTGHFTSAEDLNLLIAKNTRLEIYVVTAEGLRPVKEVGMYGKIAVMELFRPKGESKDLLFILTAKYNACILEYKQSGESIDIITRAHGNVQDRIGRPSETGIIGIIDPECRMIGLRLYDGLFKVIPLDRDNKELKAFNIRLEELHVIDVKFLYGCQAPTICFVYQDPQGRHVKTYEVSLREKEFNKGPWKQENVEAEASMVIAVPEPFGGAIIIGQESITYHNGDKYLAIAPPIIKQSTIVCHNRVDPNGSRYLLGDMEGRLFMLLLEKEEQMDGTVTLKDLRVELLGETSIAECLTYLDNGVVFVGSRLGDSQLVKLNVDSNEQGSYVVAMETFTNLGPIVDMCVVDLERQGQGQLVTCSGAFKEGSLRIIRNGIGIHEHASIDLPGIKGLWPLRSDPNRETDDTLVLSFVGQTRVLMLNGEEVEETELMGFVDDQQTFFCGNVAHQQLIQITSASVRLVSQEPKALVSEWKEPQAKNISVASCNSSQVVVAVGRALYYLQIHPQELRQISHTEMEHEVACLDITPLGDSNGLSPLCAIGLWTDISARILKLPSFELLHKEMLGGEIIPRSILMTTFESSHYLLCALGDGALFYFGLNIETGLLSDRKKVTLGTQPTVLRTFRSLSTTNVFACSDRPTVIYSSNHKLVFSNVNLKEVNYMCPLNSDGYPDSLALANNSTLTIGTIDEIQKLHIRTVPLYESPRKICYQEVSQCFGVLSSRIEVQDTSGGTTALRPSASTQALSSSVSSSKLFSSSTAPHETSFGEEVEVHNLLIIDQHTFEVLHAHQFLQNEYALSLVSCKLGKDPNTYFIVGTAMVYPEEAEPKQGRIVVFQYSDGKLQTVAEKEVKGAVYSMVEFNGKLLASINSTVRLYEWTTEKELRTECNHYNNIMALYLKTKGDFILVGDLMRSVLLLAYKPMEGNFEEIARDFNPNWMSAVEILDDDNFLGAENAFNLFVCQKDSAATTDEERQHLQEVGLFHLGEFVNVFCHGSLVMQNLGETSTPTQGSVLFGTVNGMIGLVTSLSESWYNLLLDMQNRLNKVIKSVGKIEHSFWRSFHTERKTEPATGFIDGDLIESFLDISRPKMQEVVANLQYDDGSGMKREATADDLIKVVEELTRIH
Description: as §1

[2] = highest concentration tested of 30 μM

Chain of Full length wild-type cereblon CRBN (Q96SW2 whole entry): as the sequence (Q96SW2 whole entry, looked up) above

| IC50 ([1]; read-out: IC50 value) [nM] | IKZF1 degradation (IKZF1 (Ikaros)) | GSPT1 degradation (FIG. 1A) (GSPT1; cells treated at 0.3 μM) | IC50 ([1]; read-out: rFP IC50) [nM] | SMILES | CK1alpha degradation (CK1alpha) | GSPT1 degradation (GSPT1) | IKZF1 degradation (FIG. 1A) (IKZF1 (Ikaros); [2]) | CK1alpha degradation (FIG. 1A) (CK1alpha; [2]) |
| --- | --- | --- | --- | --- | --- | --- | --- | --- |
| < 1100 | A |  |  | Cc1ncc(NC(=O)OCc2ccc3c(c2)C(=O)N(C2CCC(=O)NC2=O)C3)cc1Cl (stereo not shown) [Compound 6] | A | F (F represents degradation at 0.3 μM (>90%)) |  |  |
|  | A | complete GSPT1 degradation |  | Cc1ccc(NC(=O)OCc2ccc3c(c2)C(=O)N(C2CCC(=O)NC2=O)C3)cc1Cl (stereo not shown) [Compound 10] | B (B represents trace degradation at 30 μM (below 20%)) | D (D represents degradation at 30 μM (>90%)) | none of the known the substrates IKZF1, IKZF3, SALL4, CK1alpha was degraded | none of the known the substrates IKZF1, IKZF3, SALL4, CK1alpha was degraded |
| < 1100 | A |  |  | O=C1CCC(N2Cc3ccc(COC(=O)Nc4ccc(N5CCCCC5)nc4)cc3C2=O)C(=O)N1 (stereo not shown) [Compound 15] | C (C represents weak degradation at 30 μM (below 50%)) | F (F represents degradation at 0.3 μM (>90%)) |  |  |
|  | A |  | > 1700 | O=C1CCC(N2Cc3ccc(COC(=O)Nc4ccc(-c5ccccc5)nc4)cc3C2=O)C(=O)N1 (stereo not shown) [Compound 42] | B (B represents trace degradation at 30 μM (below 20%)) | F (F represents degradation at 0.3 μM (>90%)) |  |  |
|  | A |  | > 1700 | CC(C)(C)c1ccc(NC(=O)OCc2ccc3c(c2)C(=O)N(C2CCC(=O)NC2=O)C3)cn1 (stereo not shown) [Compound 43] | C (C represents weak degradation at 30 μM (below 50%)) | F (F represents degradation at 0.3 μM (>90%)) |  |  |
